Assay [1] concerns the target T1, human Gcg receptor (hGcgR) (Homo sapiens, UniProt P47871).
T1 construct: expressed in transfected cells; crude membranes
The experiment in a line: [125I]-Glucagon binding, SPA with membranes of HEK293 cells expressing hGcgR. The following applies: human GcgR; geometric mean (SEM, n); read-out: Binding Affinity Ki, nM (SEM, n) hGCGR. The protocol:
Two methods are used for the preparation of crude cell membranes.
Method 1: Frozen cell pellets are lysed on ice in hypotonic buffer containing 50 mM Tris HCl, pH 7.5, and Roche Complete™ Protease Inhibitors with EDTA. […] The homogenate is centrifuged at 4° C. at 1100 × g for 10 minutes. The supernatant is collected and stored on ice while the pellets are resuspended in homogenization buffer and rehomogenized as described above. The homogenate is centrifuged at 1100 × g for 10 minutes. The second supernatant is combined with the first supernatant and centrifuged at 35000 × g for 1 hour at 4° C. The resulting membrane pellet is resuspended in homogenization buffer containing protease inhibitors at approximately 1 to 3 mg/mL, quick frozen in liquid nitrogen and stored as aliquots in a -80° C. freezer until use.
The homogenate is centrifuged at 4° C. at 1800 × g for 15 minutes. The supernatant is collected and stored on ice while the pellets are resuspended in homogenization buffer (without DNAse I) and rehomogenized as described above. The homogenate is centrifuged at 1800 × g for 15 minutes. The second supernatant is combined with the first supernatant and centrifuged an additional time at 1800 × g for 15 minutes. The overall supernatant is then centrifuged at 25000 × g for 30 minutes at 4° C. The resulting membrane pellet is resuspended in homogenization buffer (without DNAse I) containing protease inhibitors at approximately 1 to 3 mg/mL and stored as aliquots in a -80° C. freezer until use.
The human Gcg receptor binding assays are performed using a Scintillation Proximity Assay (SPA) format with wheat germ agglutinin (WGA) beads (Perkin Elmer). The binding buffer contains 25 mM 4-(2-hydroxyethyl)-1-piperazineethanesulfonic acid (HEPES), pH 7.4, 2.5 mM CaCl2, 1 mM MgCh, 0.1% (w/v) bacitracin (Research Products), 0.003% (w/v) Polyoxyethylenesorbitan monolaurate (TWEEN®-20), and Roche Complete™ Protease Inhibitors without EDTA. […] Next, 5 µL serially diluted compound or DMSO is transferred into Corning® 3632 clear bottom assay plates containing 45 µL assay binding buffer or unlabeled Gcg control (non-specific binding or NSB, at 1 µM final). […] Plates are sealed and mixed on a plate shaker (setting 6) for 1 minute and read with a PerkinElmer Trilux MicroBeta® scintillation counter after 12 hours of incubation/settling time at room temperature.
Raw CPM data for concentration curves of peptides, Gcg, GLP-1, or GIP are converted to percent inhibition by subtracting nonspecific binding (binding in the presence of excess unlabeled Gcg, GLP-1, or GIP, respectively) from the individual CPM values and dividing by the total binding signal, also corrected by subtracting nonspecific binding. Data are analyzed using four-parameter (curve maximum, curve minimum, IC50, Hill slope) nonlinear regression routines (Genedata Screener, version 12.0.4, Genedata AG, Basal, Switzerland). […] Values for Ki are reported as the geometric mean, with error expressed as the standard error of the mean (SEM) and n is equal to the number of independent replicates (determined in assays performed on different days). Geometric Means are calculated as follows: […]
The Ki Ratio (Ki for native control peptide/Ki for test compound) at each receptor and each species is calculated. The Ki Ratio is a rapid indication of the apparent affinity of a peptide compared to the native control peptide.
n=⅟x means that only one value out of the total number of replicates (x) is used to express the mean. SEM is only calculated when n=2 or greater non-qualified results exist. Means are expressed as GeoMetric means with the standard error of the mean (SEM) and the number of replicates (n) indicated in parenthesis.

The target in a further assay is T2, hGIPR (Homo sapiens, UniProt P48546).
T2 construct: expressed in transfected cells
T2 sequence (P48546 22-466): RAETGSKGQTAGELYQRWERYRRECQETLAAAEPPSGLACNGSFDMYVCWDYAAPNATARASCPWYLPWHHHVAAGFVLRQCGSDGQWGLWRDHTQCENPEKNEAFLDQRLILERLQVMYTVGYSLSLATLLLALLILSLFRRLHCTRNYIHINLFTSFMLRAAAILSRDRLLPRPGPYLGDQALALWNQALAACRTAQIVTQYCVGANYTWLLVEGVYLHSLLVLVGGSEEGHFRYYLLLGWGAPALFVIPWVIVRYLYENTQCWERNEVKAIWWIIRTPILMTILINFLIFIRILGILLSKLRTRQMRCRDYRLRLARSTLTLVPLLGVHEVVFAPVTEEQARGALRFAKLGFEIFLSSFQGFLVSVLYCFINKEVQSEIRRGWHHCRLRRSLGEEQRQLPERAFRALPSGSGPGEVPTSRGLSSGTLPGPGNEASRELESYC
Kind of assay: Functional cAMP formation (HTRF) in HEK-293 clonal cells expressing hGIPR, 0.1% bovine casein, without or with 1.0% human serum albumin. Type of assay: cell-based. The following applies: 37° C.; for Emax: read-out: hGIPR Emax, % ± SEM; for EC50: cAMP, read-out: hGIPR EC50, nM (SEM, n). Put shortly: (§1)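 Readings of the HTRF 665/620 nm ratio, which falls as cAMP rises, were converted to nM cAMP using a standard curve after 30 min peptide exposure at 37° C.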
Background: cAMP levels reflect the balance of adenylyl cyclase and phosphodiesterase activity.

Another assay deals with T3, hGCGR (Homo sapiens, UniProt P47871).
T3 construct: expressed in transfected cells
The experiment in a line: Functional cAMP formation (HTRF) in HEK-293 clonal cells expressing hGCGR, 0.1% bovine casein, without or with 1.0% human serum albumin. The class given is cell-based. The following applies: read-out: hGCGR EC50, nM (SEM, n). The essentials:
as §1

A further assay addresses hGLP-1R (Homo sapiens, UniProt P43220). The experiment in a line: Functional cAMP formation (HTRF) in HEK-293 clonal cells expressing hGLP-1R, 0.1% bovine casein, without or with 1.0% human serum albumin. The class given is cell-based. Set-up: expressed in transfected cells. The following applies: 37° C.; for Emax: read-out: hGLP-1R Emax, % ± SEM; for EC50: cAMP, read-out: hGLP-1R EC50, nM (SEM, n). Put shortly:
as §1

[2] abbreviates: 0.1% bovine casein (no human serum albumin), geometric mean.
Where [3] appears, read: 0.1% bovine casein and 1.0% human serum albumin, geometric mean (SEM, n).

As usually defined, the Ki is a measure of affinity in units of concentration, obtained from inhibition or displacement. As a reminder, the Emax is the maximal effect, on the per cent scale that the assay sets. As usually defined, the EC50 is the concentration giving half of the maximal effect.

Read-outs that look alike come from different tables or passages of the source.

Chain of hGLP-1R (P43220 24-463): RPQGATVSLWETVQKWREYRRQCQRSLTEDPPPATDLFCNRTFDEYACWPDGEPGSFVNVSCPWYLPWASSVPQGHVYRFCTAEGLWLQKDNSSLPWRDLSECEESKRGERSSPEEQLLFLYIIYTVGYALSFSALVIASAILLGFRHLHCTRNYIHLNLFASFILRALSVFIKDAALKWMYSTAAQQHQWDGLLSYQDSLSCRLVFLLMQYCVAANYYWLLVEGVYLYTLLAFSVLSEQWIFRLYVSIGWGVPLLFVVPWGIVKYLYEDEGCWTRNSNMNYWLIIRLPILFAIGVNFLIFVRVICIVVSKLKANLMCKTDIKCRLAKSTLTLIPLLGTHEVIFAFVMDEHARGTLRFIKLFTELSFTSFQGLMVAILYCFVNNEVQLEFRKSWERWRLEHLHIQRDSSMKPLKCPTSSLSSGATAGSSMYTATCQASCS
T3 sequence (P47871 26-477): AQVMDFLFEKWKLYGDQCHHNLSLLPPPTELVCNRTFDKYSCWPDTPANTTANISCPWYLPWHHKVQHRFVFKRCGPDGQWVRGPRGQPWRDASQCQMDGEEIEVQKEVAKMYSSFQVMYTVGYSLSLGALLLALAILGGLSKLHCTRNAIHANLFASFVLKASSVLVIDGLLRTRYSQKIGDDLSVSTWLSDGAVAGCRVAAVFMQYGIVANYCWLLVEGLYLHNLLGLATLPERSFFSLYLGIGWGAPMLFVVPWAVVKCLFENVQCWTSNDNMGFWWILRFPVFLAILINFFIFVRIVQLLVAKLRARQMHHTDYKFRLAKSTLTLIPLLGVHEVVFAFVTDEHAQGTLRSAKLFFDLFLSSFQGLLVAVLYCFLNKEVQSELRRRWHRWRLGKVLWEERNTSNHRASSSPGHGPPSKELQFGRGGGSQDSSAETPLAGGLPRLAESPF
T1 sequence (P47871 26-477): as above

For `CC[C@H](C)[C@H](NC(=O)[C@H](CC(C)C)NC(=O)[C@](C)(Cc1ccc(O)cc1)NC(=O)[C@@H](CCC(=O)O)NC(=O)[C@@H](NC(=O)[C@H](Cc1ccccc1)NC(=O)[C@H](CCC(=O)O)NC(=O)C(C)(C)NC(=O)[C@H](CCC(N)=O)NC(=O)[C@H](C)NC(=O)[C@H](CCCCNC(=O)COCCOCCNC(=O)COCCOCCNC(=O)CC[C@H](NC(=O)CCCCCCCCCCCCC(=O)O)C(=O)O)NC(=O)[C@H](CCCN)NC(=O)[C@H](CC(=O)O)NC(=O)[C@H](CC(C)C)NC(=O)[C@](C)(Cc1ccccc1)NC(=O)[C@@H](NC(=O)[C@H](CO)NC(=O)[C@H](Cc1ccncc1)NC(=O)[C@H](CC(=O)O)NC(=O)[C@H](CO)NC(=O)[C@@H](NC(=O)[C@](C)(Cc1ccccc1)NC(=O)[C@@H](NC(=O)CNC(=O)[C@H](CCC(=O)O)NC(=O)C(C)(C)NC(=O)[C@@H](N)Cc1ccc(O)cc1)[C@@H](C)O)[C@@H](C)O)[C@@H](C)CC)[C@@H](C)CC)C(=O)N[C@@H](CCC(=O)O)C(=O)NCC(=O)NCC(=O)N[C@@H](CCCCNC(=O)COCCOCCNC(=O)COCCOCCNC(=O)CC[C@H](NC(=O)CCCCCCCCCCCCC(=O)O)C(=O)O)C(=O)N[C@@H](CO)C(=O)N[C@@H](CO)C(=O)NCC(=O)N[C@@H](C)C(=O)N1CCC[C@H]1C(=O)N1CCC[C@H]1C(=O)N1CCC[C@H]1C(=O)N[C@@H](CO)C(N)=O` [Example 46], the Ki in assay [1] was more than 966 nM. Also, the Emax was found to be 73.3% on hGIPR (HEK293, 0.1% bovine casein and 1.0% human serum albumin, percent of maximal response to GIP(1-42)NH2); 89.5 ± 2.64% at hGIPR (HEK293, percent of maximal response to GIP(1-42)NH2, 0.1% bovine casein, arithmetic mean); 117% on hGLP-1R (HEK293, 0.1% bovine casein and 1.0% human serum albumin, percent of maximal response to GLP-1(7-36)NH2); 79.2 ± 1.23% on hGLP-1R (HEK293, percent of maximal response to GLP-1(7-36)NH2, 0.1% bovine casein, arithmetic mean). Moreover, the EC50 was more than 9950 nM at hGCGR (0.1% bovine casein and 1.0% human serum albumin, 37° C., geometric mean); more than 9950 nM at hGCGR (cAMP, incubated at 37° C., 0.1% bovine casein (no human serum albumin), geometric mean).
As for `CC[C@H](C)[C@H](NC(=O)[C@H](CC(C)C)NC(=O)[C@](C)(Cc1ccc(O)cc1)NC(=O)[C@@H](CCC(=O)O)NC(=O)[C@@H](NC(=O)[C@H](Cc1ccccc1)NC(=O)[C@H](CCC(=O)O)NC(=O)C(C)(C)NC(=O)[C@H](CCC(N)=O)NC(=O)[C@H](C)NC(=O)[C@H](CCCCNC(=O)COCCOCCNC(=O)CC[C@H](NC(=O)CCCCCCCCCCCCC(=O)O)C(=O)O)NC(=O)[C@H](CCCN)NC(=O)[C@H](CC(=O)O)NC(=O)[C@H](CC(C)C)NC(=O)[C@](C)(CC(C)C)NC(=O)[C@@H](NC(=O)C(C)(C)NC(=O)[C@H](Cc1ccncc1)NC(=O)[C@H](CC(=O)O)NC(=O)[C@H](CO)NC(=O)[C@@H](NC(=O)[C@](C)(Cc1ccccc1F)NC(=O)[C@@H](NC(=O)CNC(=O)[C@H](CCC(=O)O)NC(=O)C(C)(C)NC(=O)[C@@H](N)Cc1ccc(O)cc1)[C@@H](C)O)[C@@H](C)O)[C@@H](C)CC)[C@@H](C)CC)C(=O)N[C@@H](CCC(=O)O)C(=O)NCC(=O)NCC(=O)N1CCC[C@H]1C(=O)N[C@@H](CO)C(=O)N[C@@H](CO)C(=O)NCC(=O)N[C@@H](C)C(=O)N1CCC[C@H]1C(=O)N1CCC[C@H]1C(=O)N1CCC[C@H]1C(=O)N[C@@H](CO)C(=O)N[C@@H](CCCCNC(=O)COCCOCCNC(=O)CC[C@H](NC(=O)CCCCCCCCCCCCC(=O)O)C(=O)O)C(N)=O` [Example 338], in assay [1], the Ki was more than 957 nM. Moreover, the Emax at hGIPR (HEK293, cAMP, 0.1% bovine casein and 1.0% human serum albumin, percent of maximal response to GIP(1-42)NH2) is 83.9%; on hGLP-1R (HEK293, cAMP, 0.1% bovine casein, percent of maximal response to GLP-1(7-36)NH2, arithmetic mean), 109%. For the same compound, the EC50 at hGIPR (setting [2]) was 0.0157 nM; on hGIPR (setting [3]) it was 1.24 nM; on hGCGR (cAMP, 37° C., 0.1% bovine casein (no human serum albumin), geometric mean) it was more than 10100 nM; on hGCGR (cAMP, 37° C., 0.1% bovine casein and 1.0% human serum albumin, geometric mean (SEM, n)), more than 10100 nM; at hGLP-1R (setting [2]), 0.468 nM; on hGLP-1R (setting [3]), 36.6 nM.
